EP1127071B1, “COMPOUNDS WITH GROWTH HORMONE RELEASING PROPERTIES” (Novo Nordisk A/S, priority 1998, dated 2000)

Experiment: Pharmacokinetics after intravenous and oral administration in fasted Beagle dogs
Type: in vivo
Details: compared with the compound of example 408 of WO 9723508
Description: The pharmakokinetic data were obtained by the following procedure:
The pharmacokinetics of the test compounds were Investigated in fasted Beagle dogs.
Intravenous and oral administration of the test compound, in 5% glucose solution, was separated by a one-week washout.
Blood samples were collected immediately before drug administration (time zero) and than 0.08, 0.25, 0.50, 0.75, 1.0, 1.5. 2.0, 3.0, 4.0, 5.0, and 6.0 hours after administration.
The plasma samples were stored frozen (<-18°C) pending analysis.
An HPLC method with solid phase extraction and W detection was used for the quantification of the compound in plasma.
The pharmacokinetic parameters for the compounds were calculated by non-compartmental methods using the PC based pharmacokinetic software WinNonlin, version 1.1 (Scientific Consulting Inc., Apex, NC, USA).

- plasma half-life (administration in 5% glucose solution): shorter plasma half-life
- oral bioavailability (oral vs intravenous administration in 5% glucose solution): better oral bioavailability
SMILES: CN(CCc1ccccn1)C(=O)[C@@H](Cc1ccccc1)N(C)C(=O)[C@@H](Cc1ccc2ccccc2c1)N(C)C(=O)/C=C/CC(C)(C)N [Example 1, (2E)-5-Amino-5-methylhex-2-enoic acid N-methyl-N-[(1R)-1-(N-methyl-N-{(1R)-1-[N-methyl-N-(2-(2-pyridinyl)ethyl)carbamoyl]-2-phenylethyl}carbamoyl)-2-(2-naphthyl)ethyl]amide]
